# Key:
# [1] = tested on: NAMECs; assay: Boyden chamber migration of NAMECs; type: cell-based, human; conditions: GW pre-treatment, 4 days
# Experimental: FIG. 3 includes a set of images and two graphs. (A) is a set of bright-field images of NAMECs treated with vehicle, GW627368X, Dynasore (1 μM), or GW627368X plus Dynasore (0.5, 1, 1.5 μM) for 4 days. Scale bar, 100 μm. (B) is a graph showing the percentage of NAMECs treated with vehicle, GW627368X, Dynasore (1 μM), or GW627368X plus Dynasore (0.75 and 1 μM) that were resistant to 0.05% trypsin. Data are means±SEM, (n=3). ***P≤0.001. (C) is a graph showing Boyden chamber migration of NAMECs treated with vehicle (Crl), GW627368X, Dynasore (1 μM), or GW627368X plus Dynasore (0.5, 0.75, 1 μM) for 4 days. Data are means±SEM (n=3). **P≤0.005. ***P≤0.001.
# [2] = tested on: mesenchymal stem cells (MSCs); assay: Osteogenic, adipogenic and neural differentiation of MSCs; type: cell-based; conditions: GW-treated MSCs
# Experimental: (A) and (B) show osteogenic differentiation of MSCs and EP4 antagonist GW-treated MSCs. MSCs were cultured in osteogenic differentiation medium and then stained with Alizarin Red S. Osteogenic differentiation was quantified by measuring the optical density (OD) of Alizarin Red S staining. […] MSCs were cultured in adipogenic differentiation medium. […] MSCs were cultured in neural differentiation medium for 7 or 14 days and then analyzed for the expression of neuronal marker tublin β3 and NeuN using western blotting.
# GW-treated MSCs were cultured in osteogenic differentiation medium, adipogenic differentiation medium and neuron differentiation medium, respectively.
# [3] = tested on: NAMEC-R cells; assay: NTA of EV release from Ras-transformed NAMEC-R cells; type: cell-based; conditions: CM-P4, 4 days; GW 1 μg/ml; SQ 120 and 240 nM
# Experimental: Vesicles in the P4 fractions were counted using NTA. Data are means±SEM (n=6). ***P≤0.001; (B) The Alix, TSG101, CD63, CD81 and GAPDH exosome markers were measured in the CM-P4 fractions of NAMEC-R cells treated with vehicle (Crl), GW627368X (GW, 1 μg/ml), SQ 29,548 (SQ120/SQ240; 120 nM and 240 nM); (C) The mesenchymal marker N-cadherin, CSC markers and exosome markers were analyzed in the conditioned medium P4 fraction derived from equal numbers of vehicle-treated NAMEC-R cells (Crl), GW-treated NAMEC-R cells (GW, 1 μg/ml GW627368X for 4 days) and SQ 29,548-treated NAMEC-R cells (SQ120/SQ240; 120 nM and 240 nM for 4 days). The longer GAPDH(L) and CD81(L) exposures show the low, but detectable, presence of GAPDH and CD81 in the conditioned medium P4 fraction of vehicle-treated NAMEC-R cells.
# We further investigated whether EP4 antagonism and TP receptor antagonism (as GW has partial affinity to the human TP receptor) affected EV release from transformed mammary epithelial stem cells. Four-day conditioned media of vehicle, GW-, or SQ (a TP antagonist)-treated Ras-transformed NAMEC mammary stem cells (NAMEC-R) were collected and subjected to differential ultracentrifugation to isolate EVs released by the cells. The numbers of vesicles in CM-P4 fractions were determined using NTA (FIG. 20, A). EP4 antagonism elicited release of ˜5000 vesicles per NAMEC-R cell. […]
# [4] = tested on: MDA-MB-231 cells; assay: NTA and EV protein of CM-P4 fractions of MDA-MB-231 cells; type: cell-based, human
# Source text: (A) Quantification of EV/exosome release, shown as the number of particles in the CM-P4 fractions released per cell, from MCF-7 and MDA-MB-231 breast cancer cells treated with vehicle or with the indicated concentrations of GW627368X. Particles in the P4 fractions were counted using nanoparticle tracking analysis. Data are means±SEM (n=10). *P≤0.05, ***P≤0.001. (B) Quantification of the total EV protein released from MCF-7 and MDA-MB-231 cells treated with vehicle or with the indicated concentrations of GW627368X. The amounts (m) of protein present per cell in the conditioned medium P4 fractions are presented as means±SEM (n=3). *P≤0.05; (C) Protein levels in the P4 EV/exosome fractions and cell lysates, analyzed by Western blot. Culture media and cell lysates were collected from the same numbers of MCF-7 and MDA-MB-231 cells treated with vehicle or with GW627368X (GW), at the indicated concentrations, for 4 days. The P4 fractions of the culture media, containing EVs, were isolated. […]
# We next examined whether blocking EP4-mediated signaling with an EP4 antagonist can elicit EV-mediated removal of CSC proteins (e.g., mesenchymal markers and stem cell markers) in the human breast carcinoma MCF-7 and MDA-MB-231 cell lines. P4 fractions from the conditioned media (CM-P4) of GW-treated MCF-7 and MDA-MB-231 cells were analyzed using NTA (FIG. 21, A). […]
structure (smiles),measurement,setting,value
CCOc1c2c(c(OCC)c3ccccc13)C(=O)N(c1ccc(CC(=O)NS(=O)(=O)c3ccccc3)cc1)C2 [GW627368X],decrease of number of migrating cells,[1],~60%
same,"abilities to differentiate into osteoblasts, adipocytes or nerve cells vs non-treated MSCs",[2],much lowered
same,vesicles released per cell,[3],~5000 vesicles per cell
same,amount of protein per cell in the EV/exosome fraction,[4]; GW-treated MDA-MB-231,10 fold
same,numbers of EVs released,[4]; increasing concentrations of GW,modestly increased

# From patent US11149277B2, “Method of producing enriched exosomes” (National Health Research Institutes, priority 2016, dated 2021)
